The test system of the assay is P388 leukemia ip, CD2F1 mice, survival T/C. Description: NCI In Vivo Anticancer Drug Screen. Data for tumor model P388 Leukemia (intraperitoneal) in CD2F1 (CDF1) mice. Particulars: endpoint: median survival time, higher = longer survival. Summed up:
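Mice carrying the transplanted tumor received test compound or vehicle. Survival was recorded in each group, and the value is the treated-group measurement divided by that of the vehicle-treated control group.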

The mark [1] stands for this setting: dose: 12.5 mg/kg/injection, schedule: Q01DX009 (ip), vehicle: saline with Tween-80.
[2] abbreviates: dose: 25.0 mg/kg/injection, schedule: Q01DX009 (ip), vehicle: saline with Tween-80.
The mark [3] stands for this setting: dose: 50.0 mg/kg/injection, schedule: Q04DX002 (ip), vehicle: saline with Tween-80.
Where [4] appears, read: dose: 50.0 mg/kg/injection, schedule: Q01DX009 (ip), vehicle: Klucel (hydroxypropylcellulose) (HPC).
Setting [5] is: dose: 100.0 mg/kg/injection, schedule: Q01DX009 (ip), vehicle: Klucel (hydroxypropylcellulose) (HPC).
Setting [6] is: dose: 200.0 mg/kg/injection, schedule: Q01DX009 (ip), vehicle: Klucel (hydroxypropylcellulose) (HPC).

Several values for one entry are separate records, joined by “and”; a condition that tells them apart may be missing. Equal entries are not always repeated. Inconclusive results and toxic doses are left out.

With `Cc1ccc(S(=O)(=O)N=S(C)(C)=O)cc1`, the T/C by setting is: (dose: 0.1 mg/kg/injection, schedule: Q01DX009 (ip), vehicle: saline with Tween-80) 104 % of control; (dose: 0.2 mg/kg/injection, schedule: Q01DX009 (ip), vehicle: saline with Tween-80) 105 % of control and 108 % of control; (dose: 0.39 mg/kg/injection, schedule: Q01DX009 (ip), vehicle: saline with Tween-80) 99 % of control and 101 % of control; (dose: 0.78 mg/kg/injection, schedule: Q01DX009 (ip), vehicle: saline with Tween-80) 107 % of control; (dose: 0.79 mg/kg/injection, schedule: Q01DX009 (ip), vehicle: saline with Tween-80) 98 % of control; (dose: 1.56 mg/kg/injection, schedule: Q01DX009 (ip), vehicle: saline with Tween-80) 108 % of control and 120 % of control and 96 % of control. Moreover, the T/C reads like this: (dose: 6.25 mg/kg/injection, schedule: Q01DX009 (ip), vehicle: saline with Tween-80) 100 % of control and 105 % of control and 91 % of control; under setting [1], 104 % of control and 88 % of control; under setting [2], 97 % of control.

With `COc1ccc2c3c1OC1CC(N4CCCC4)=C(c4c([N+](=O)[O-])cc([N+](=O)[O-])cc4[N+](=O)[O-])C4(O)C(C2)N(C)CCC314` (stereo unspecified), the T/C runs as follows: (dose: 60.0 mg/kg/injection, schedule: Q01DX005 (ip), vehicle: Klucel (hydroxypropylcellulose) (HPC)) 94 % of control; (dose: 120.0 mg/kg/injection, schedule: Q01DX005 (ip), vehicle: Klucel (hydroxypropylcellulose) (HPC)) 94 % of control; (dose: 240.0 mg/kg/injection, schedule: Q01DX005 (ip), vehicle: Klucel (hydroxypropylcellulose) (HPC)) 90 % of control.

Turning to `CC(=O)Nc1c(Cl)c(Cl)c2c(c1Cl)Cc1cc(Cl)ccc1-2`, the T/C by setting is: (dose: 12.5 mg/kg/injection, schedule: Q01DX009 (ip), vehicle: saline) 103 % of control; (dose: 25.0 mg/kg/injection, schedule: Q01DX009 (ip), vehicle: saline) 104 % of control; (dose: 25.0 mg/kg/injection, schedule: Q01DX009 (ip), vehicle: suspension in saline) 91 % of control; (dose: 50.0 mg/kg/injection, schedule: Q01DX009 (ip), vehicle: saline) 107 % of control; (dose: 50.0 mg/kg/injection, schedule: Q01DX009 (ip), vehicle: suspension in saline) 87 % of control; (dose: 100.0 mg/kg/injection, schedule: Q01DX009 (ip), vehicle: suspension in saline) 91 % of control.

On to `C/C(=N\N=C(\N)N1CCOCC1)c1ccc2c(c1)Cc1c(/C(C)=N/N=C(\N)N3CCOCC3)cccc1-2`, for which the T/C by setting is: (dose: 12.5 mg/kg/injection, schedule: Q04DX002 (ip), vehicle: saline with Tween-80) 102 % of control; (dose: 25.0 mg/kg/injection, schedule: Q04DX002 (ip), vehicle: saline with Tween-80) 97 % of control; under setting [3], 103 % of control.

Regarding `CC1(C)OP(=O)(O)c2ccccc21`, the T/C by setting is: under setting [4], 100 % of control; under setting [5], 100 % of control; under setting [6], 88 % of control.

With `NCCSCCO`, the T/C is 98 % of control (dose: 50.0 mg/kg/injection, schedule: Q01DX005 (ip), vehicle: saline); 100 % of control (dose: 100.0 mg/kg/injection, schedule: Q01DX005 (ip), vehicle: saline); 99 % of control (dose: 200.0 mg/kg/injection, schedule: Q01DX005 (ip), vehicle: saline).

Turning to `CC(C)C(NC(=O)OCc1ccccc1)C(=O)N(C(=O)NC1CCCCC1)C1CCCCC1` (stereo unspecified), the T/C is 100 % of control (dose: 50.0 mg/kg/injection, schedule: Q01DX005 (ip), vehicle: Klucel (hydroxypropylcellulose) (HPC)); 95 % of control (dose: 100.0 mg/kg/injection, schedule: Q01DX005 (ip), vehicle: Klucel (hydroxypropylcellulose) (HPC)); 98 % of control (dose: 200.0 mg/kg/injection, schedule: Q01DX005 (ip), vehicle: Klucel (hydroxypropylcellulose) (HPC)).

Turning to `O=C(Nc1nncs1)c1ccncc1`, the T/C was 104 % of control under setting [3]; 112 % of control (dose: 100.0 mg/kg/injection, schedule: Q04DX002 (ip), vehicle: saline with Tween-80); 157 % of control (dose: 200.0 mg/kg/injection, schedule: Q04DX002 (ip), vehicle: saline with Tween-80); 153 % of control and 164 % of control (dose: 400.0 mg/kg/injection, schedule: Q04DX002 (ip), vehicle: saline with Tween-80).

In the case of `O=S1CCS(=O)C1c1ccccc1` (stereo unspecified), the T/C is, setting by setting: (dose: 50.0 mg/kg/injection, schedule: Q01DX005 (ip), vehicle: other) 99 % of control; (dose: 100.0 mg/kg/injection, schedule: Q01DX005 (ip), vehicle: other) 103 % of control.

Turning to `NC1C2CC3CC(C2)CC1(N)C3` (stereo unspecified), the T/C was 104 % of control under setting [1]; 102 % of control under setting [2]; 101 % of control and 96 % of control (dose: 50.0 mg/kg/injection, schedule: Q01DX009 (ip), vehicle: saline with Tween-80); 99 % of control (dose: 100.0 mg/kg/injection, schedule: Q01DX009 (ip), vehicle: saline with Tween-80); 99 % of control (dose: 200.0 mg/kg/injection, schedule: Q01DX009 (ip), vehicle: saline with Tween-80).

On to `Cc1c/c(=N\O)c2c(=O)c([N+](=O)[O-])coc2n1O`, for which the T/C runs as follows: under setting [4], 100 % of control; under setting [5], 100 % of control; under setting [6], 97 % of control.

Regarding `Cc1nn(C(=O)c2ccncc2)c(C)c1N=Nc1ccc(S(=O)(=O)Nc2ncccn2)cc1`, the T/C is 109 % of control under setting [4], 109 % of control under setting [5] and 105 % of control under setting [6].

For the compound `NC(CC1C(=O)Nc2ccccc21)C(=O)O` (stereo unspecified), the T/C runs as follows: (dose: 50.0 mg/kg/injection, schedule: Q01DX005 (ip), vehicle: saline with Tween-80) 104 % of control; (dose: 100.0 mg/kg/injection, schedule: Q01DX005 (ip), vehicle: saline with Tween-80) 103 % of control; (dose: 200.0 mg/kg/injection, schedule: Q01DX005 (ip), vehicle: saline with Tween-80) 103 % of control.

As for `N#CC1CC2C=CC1C2` (stereo unspecified), the T/C by setting is: (dose: 5.0 mg/kg/injection, schedule: Q01DX009 (ip), vehicle: saline sonified) 109 % of control; (dose: 10.0 mg/kg/injection, schedule: Q01DX009 (ip), vehicle: saline sonified) 109 % of control; (dose: 20.0 mg/kg/injection, schedule: Q01DX009 (ip), vehicle: saline sonified) 90 % of control.

Consider `Cn1c(=O)n(-c2ccccc2)c(=O)c2ccccc21`, for which the T/C is 100 % of control under setting [5]; 110 % of control under setting [6]; 109 % of control (dose: 400.0 mg/kg/injection, schedule: Q01DX009 (ip), vehicle: Klucel (hydroxypropylcellulose) (HPC)).

For the origin of these results see PubChem BioAssay AID330 (DTP/NCI, 2004).
